The text below walks through data of US20170120592A1, “INK JET RECORDING METHOD AND INK JET RECORDING APPARATUS” (CANON KABUSHIKI KAISHA, priority 2015, published 2017).

A short description of the data set: Water-solubility of dye. In kind it is physicochemical. To be noted: maximum mass of the dye in a sodium salt form that can be dissolved in 100 g of pure water at 20° C.
For C.I. Direct Yellow 86, the “water-solubility of the dye” value was “(10 g)”.

As for C.I. Direct Blue 199, the “water-solubility of the dye” value is “(30 g)”. For C.I. Direct Red 249, the “water-solubility of the dye” value is “(21 g)”.

`CCN(Cc1cccc(S(=O)(=O)[O-])c1)c1ccc(C(=C2C=CC(=[N+](CC)Cc3cccc(S(=O)(=O)[O-])c3)C=C2)c2ccccc2S(=O)(=O)[O-])cc1.[Na+].[Na+]` [C.I. Acid Blue 9]: the “water-solubility of the dye” value is recorded as “Blue 9 (40 g)”. With C.I. Direct Red 289 the entry was “(14 g)”.
